Experimental data reported in patent publication US6872195B2, “Chlorhexidine-containing medical devices” (The Trustees of Columbia University in the City of New York, priority 1996, dated 2005).

Experiments:
Staphylococcus aureus = experiment: One-minute kill in bacterial culture (colony counts); format: cell-based; conditions: for CFU/ml (1 minute kill): TSB + 20% BCS, 10^7 CFU inoculum; for decrease in CFU: 500 micrograms per milliliter, 1 minute
Method: Various concentrations of chlorhexidine diacetate (“CHA”) and/or triclosan (“TC”) were dispensed in 1.0 ml trypticase soy broth (“TSB”) containing 20 percent bovine calf serum (“BCS”) and inoculated with 10^7 colony-forming units (“CFU”) of Staphylococcus aureus. After one minute, the cultures were diluted with drug-inactivating medium (1:100 dilution in LTSB drug inactivating medium, which is 5% Tween 80, 2% lecithin, 0.6% sodium oleate, 0.5% sodium thiosulfate, 0.1% protease peptone and 0.1% tryptone) and 0.2 ml of the diluted culture was subcultured on a trypticase soy agar plate for the determination of colony counts.

Solubility observation = format: physicochemical; conditions: water or alcohol
Source text: When relatively soluble chlorhexidine salts such as chlorhexidine acetate (CHA) were used to impregnate catheters, the release was undesirably rapid. We investigated the use of CHX as a substitute for CHA.

SMILES | CFU/ml (1 minute kill) (Staphylococcus aureus; 500 μg/ml) | CFU/ml (1 minute kill) (Staphylococcus aureus; 1000 μg/ml) | CFU/ml (1 minute kill) (Staphylococcus aureus; 2000 μg/ml) | decrease in CFU (Staphylococcus aureus) | solubility (Solubility observation) | CFU/ml (1 minute kill) (Staphylococcus aureus; 250 μg/ml)
CC(=O)O.CC(=O)O.NC(=N\CCCCCC/N=C(N)/N=C(\N)Nc1ccc(Cl)cc1)/N=C(\N)Nc1ccc(Cl)cc1 [CHA, chlorhexidine diacetate] | 6.0 × 10^5 CFU/ml | 5.0 × 10^4 CFU/ml | 2.1 × 10^3 CFU/ml | approximately 17 fold | – | –
N=C(NCCCCCCNC(=N)NC(=N)Nc1ccc(Cl)cc1)NC(=N)Nc1ccc(Cl)cc1 [CHX, chlorhexidine free base] | – | – | – | – | not soluble | –
Oc1cc(Cl)ccc1Oc1ccc(Cl)cc1Cl [TC, 2,4,4′-trichloro-2′-hydroxydiphenyl ether] | 4.2 × 10^3 CFU/ml | – | – | approximately 2400 fold | – | 2.0 × 10^5 CFU/ml
